# Legend:
# [1] = system: monocytes isolated from mouse bone marrow; assay: Osteoclast differentiation (TRAP activity and TRAP staining); type: cell-based; conditions: mouse monocytes with M-CSF and RANKL; 5 μg/ml; treated vs untreated
# Description: Osteoclasts was isolated from primary monocytes, which are the […] of osteoclasts from the bone marrow of a 6 week old mouse, and cultured them. After confirming that the osteoclasts isolated from mouse stem cells were monocytes isolated from the bone marrow of the mouse through FACS (FIG. 6a) (monocyte positive marker antibody: CD11b), an experiment was performed. Separated mouse monocytes were treated with 30 ng/ml M-CSF and 50 ng/ml LANKL, which are osteoclast differentiation-inducing agents, and differentiation was induced for 3 days before treatment with D3G fraction layer.
# Osteoclasts are derived from stem cells and are responsible for bone resorption that destroys aged bone wherein bone remodeling is maintained through the balanced action of osteogenesis by osteoblasts and bone resorption by osteoclasts. To the monocytes extracted and cultured from the stem cells of the femoral region of the mouse, 30 ng/mL M-CSF and 50 ng/mL RANKL were added together and then cultured for 5 days. Thereafter, the activity of TRAP which is an osteoclast differentiation marker was measured.
# After washing the cells with physiological saline, TRAP activity was measured by absorbance at a wavelength of 405 nm using an Acid-Phosphatase Kit, and after staining, the osteoclasts were observed through a microscope.
# C3H10T1/2 cells [2] = assay: Cell proliferation assay (EZ-Cytox, water-soluble tetrazolium salt); type: cell-based, mouse; conditions: 5 μg/mL compared with 1 and 10 μg/ml
# Description: (§1) C3H10T1/2 cells which are mouse mesenchymal stem cells and MC3T3-E1 cells which are pre-osteoblasts were cultured in Basal Medium Eagle (BME) medium supplemented with 10% fetal bovine serum, 1 mM sodium pyruvate, 100 units/L penicillin and 100 mg/L streptomycin and α-minimal essential medium (α-MEM) at 37° C. under 5% CO2.
# (§2) The D3G fraction layer obtained in Examples 1 and 2 was dissolved in sterilized distilled water and divided into three groups of concentrations of 1 μg/ml, 5 μg/ml and 10 μg/ml, and then added them to C3H10T1/2 cells and MC3T3-E1 cells respectively and further cultured for 48 hours. Cells cultured in the absence of the D3G fraction layer were used as a control.
# Cell proliferation assays were performed using a EZ-Cytox Enhanced Cell Viability Assay Kit product with water-soluble tetrazolium salt.
# Specifically, C3H10T1/2 cells and MC3T3-E1 cells (3×10^3 cells/well) were inoculated into 96-well plates and cultured in growth medium at 37° C. for 24 hours in 5% CO2, and then the Lycium root bark extracts of three concentrations (1 μg/ml, 5 μg/ml and 10 μg/ml) were added to the cells and cultured for 2 days. […]
# (§3) Statistical analysis was performed by student's t-test for the control group without extract treatment and for each treatment group with extract treatment, and expressed as *p<0.05 depending on significance level.
# MC3T3-E1 cells [3] = assay: Analysis of mineralization action (alizarin red S staining); type: cell-based; conditions: 5 μg/mL, 3 weeks, vs control
# Description: (§4) In the case of MC3T3-E1 cells, ascorbic acid (50 μg/ml) and β-Glycerophosphate (10 mM), which are the osteoblast differentiation-inducing agents, were added, and then differentiation was induced for 3 days before treatment with the D3G fraction layer.
# The analysis of mineralization action of the cells was performed after incubation of the experimental group treated with 5 μg/ml of the D3G and the control group for 3 weeks. The analysis of mineralization action was performed using the Alizarlin red S staining method.
# C3H10T1/2 cells [4] = assay: Analysis of ALP activity; type: cell-based, mouse
# Description: as §1, §2
# (§5) After culturing the D3G-treated experimental group treated with the three kinds of concentrations (1 μg/ml, 5 μg/ml, 10 μg/ml) and the control group for 48 hours, ALP activity of cells was measured. ALP activity was measured using a ALP Assay Kit.
# Specifically, after washing the cells with the physiological saline, the cell lysed with cytolytic agent was treated with p-nitrophenyl phosphate which is a substrate of ALP and then cultured at 37° C. for 1 hour. Thereafter, 0.5N NaOH which is a reaction stop solution was added, and then the absorbance was measured at a wavelength of 405 nm. […]
# [5] = system: mixed culture of MC3T3-E1 pre-osteoblasts and mouse monocytes; assay: Mixed culture of osteoblast and osteoclast (ALP and TRAP activity); type: cell-based; conditions: MC3T3-E1 plus monocytes mixed culture; 5 μg/mL
# Description: In order to assess the maintenance of bone remodeling under the condition closer to the in vivo condition through the balanced action between osteogenesis and bone resorption by osteoblasts and osteoclasts, MC3T3-E1(2×10^4 cells/well), which are pre-osteoblasts, and monocytes (4×10^4 cells/well) obtained by extracting stem cells from the femoral region of the mouse and culturing them were mixed and cultured.
# To the mixed culture of osteoblasts and osteoclasts, ascorbic acid (50 μg/ml) and β-glycerophosphate (10 mM) which are osteoblast differentiation-inducing agents were added to induce differentiation for 3 days and then treated with D3G fraction layer. After adding the D3G fraction layer (5 μg/mL) to the mixed culture solution, the activity of ALP which is an osteoblast differentiation marker and the activity of TRAP which is an osteoclast differentiation marker were measured. Statistical analysis was performed by student's t-test and expressed as *p<0.05 and **p<0.01 depending on significance level.
# MC3T3-E1 cells [6] = assay: Cell proliferation assay (EZ-Cytox, water-soluble tetrazolium salt); type: cell-based; conditions: differentiation induced MC3T3-E1 cells; 5 μg/mL compared with 1 and 10 μg/ml
# Description: as §1, §4, §2
# Cell proliferation assays were performed using a EZ-Cytox Enhanced Cell Viability Assay Kit product with water-soluble tetrazolium salt. […]
# as §3
# MC3T3-E1 cells [7] = assay: Expression level of osteoblast differentiation gene markers (real-time PCR); type: cell-based; conditions: differentiation-induced MC3T3-E1 cells; 5 μg/ml; relative to Gapdh
# Description: as §4
# The change in the expression levels of mRNAs of osteoblast differentiation gene markers, Alp, Runx2, and Bglap (Osteocalcine) among bone remodeling-related gene markers was confirmed by a quantitative reverse transcription-PCR.
# After harvesting the cells, total RNA was isolated using Trizol, and in order to remove genomic DNA, DNase I was reacted at room temperature for 15 minutes and then treated with EDTA to inactivate DNase I.
# Thereafter, the reverse transcription reaction was induced by using oligo dT primer as a primer to synthesize cDNA, and then real-time PCR was performed using sequence specific primers of each gene and SYBR Green. The analysis of the expression level was performed by using the relative quantification method for the target gene using the Gapdh gene as a control. The gene-specific primer sequence information for identifying the level of expression of the gene markers used to determine the degree of differentiation of osteoblasts and osteoclasts is shown in Table 1 below.
# Expression levels of the three gene markers, Alp, Runx2, and Bglap related to bone remodeling for the D3G in differentiation-induced MC3T3-E1 cells were compared by the method as described above, and the results are shown in FIGS. 7a, 7b, and 7c. Statistical analysis was performed by student's t-test and expressed as *p<0.05 depending on significance level.
# MC3T3-E1 cells [8] = assay: Analysis of ALP activity; type: cell-based
# Description: as §1
# In the case of MC3T3-E1 cells, ascorbic acid (50 μg/ml) and β-Glycerophosphate (10 mM), which are the osteoblast differentiation-inducing agents, were added, and then differentiation was induced for 3 days before treatment with the D3G fraction layer. […]
# as §5
# Specifically, after washing the cells with the physiological saline, the cell lysed with cytolytic agent was treated with p-nitrophenyl phosphate which is a substrate of ALP and then cultured at 37° C. for 1 hour. Thereafter, 0.5N NaOH which is a reaction stop solution was added, and then the absorbance was measured at a wavelength of 405 nm.
# The effect of the cell ALP activity of the Lycium root bark extract in C3H10T1/2 cells and differentiation induced MC3T3-E1 cells was analyzed by the method as described above, and the results are shown in FIG. 4. […]
smiles,measurement,setting,value
"CC(=C/C(=O)O)/C=C/[C@]1(O)[C@]2(C)CO[C@@]1(C)C[C@@H](OC1OC(CO)C(O)C(O)C1O)C2 (stereo partly drawn) [D3G, dihydrophaseic acid 3′-O-β-D-glucopyranoside]",TRAP activity (osteoclast differentiation marker),[1],no significant change
same,TRAP staining of differentiated osteoclast,[1],no significant change
same,cell proliferation promoting effect at the optimal concentration,C3H10T1/2 cells [2],highest
same,mineralization (alizarin red S staining),MC3T3-E1 cells [3],increase mineralization
same,enhancing effect of cell ALP activity at 5 μg/mL,C3H10T1/2 cells [4]; 5 μg/mL compared with 1 and 10 μg/ml,best effect
same,ALP activity,"C3H10T1/2 cells [4]; 1, 5 and 10 μg/ml, 48 hours, vs control",increase ALP activity
same,ALP activity in mixed culture,[5],increase
same,TRAP activity in mixed culture,[5],increase
same,cell proliferation promoting effect at the optimal concentration,MC3T3-E1 cells [6],highest
same,expression level of Alp mRNA,MC3T3-E1 cells [7],increased
same,expression level of Bglap (Osteocalcin) mRNA,MC3T3-E1 cells [7],increased
same,expression level of Runx2 mRNA,MC3T3-E1 cells [7],increased
same,enhancing effect of cell ALP activity at 5 μg/mL,"MC3T3-E1 cells [8]; MC3T3-E1 cells, 5 μg/mL compared with 1 and 10 μg/ml",best effect
same,ALP activity,"MC3T3-E1 cells [8]; differentiation induced MC3T3-E1 cells, 1, 5 and 10 μg/ml, 48 hours, vs control",increase ALP activity
